Article PMC9138505, “Small Molecule 20S Proteasome Enhancer Regulates MYC Protein Stability and Exhibits Antitumor Activity in Multiple Myeloma” (Biomedicines, 2022)
“And” between values parts separate entries of the source, which are not always exact repeats. Equal entries are not always repeated.

Test system: RPMI-8226 cells
Experiment: Gene expression profiling, NanoString nCounter PanCancer Pathways Panel, ROSALIND analysis
Assay type: cell-based, human
Settings: RPMI-8226, TCH-165 samples 1-3
Description: RPMI-8226 cells were treated with vehicle or TCH-165 (10 μM) for 4 h. Total RNA was obtained using the mirVana miRNA Isolation Kit, with phenol (Thermofisher Scientific; AM1560; Waltham, MA, USA). Total RNA was quantified by Qubit (Thermofisher Scientific; Q32855; Waltham, MA, USA). and gene expression was evaluated against the nCounter® PanCancer Pathways Panel^TM according to the standard NanoString protocol.
Data were analyzed by ROSALIND® [36] with a hyperscale architecture developed by ROSALIND, Inc. (San Diego, CA, USA). Normalization, fold changes and p-values were calculated using criteria provided by NanoString. ROSALIND follows the nCounter® Advanced Analysis protocol of dividing counts within a lane by the geometric mean of the normalizer probes from the same lane. Housekeeping probes to be used for normalization are selected based on the geNorm algorithm, as implemented in the NormqPCR R library. Fold changes and p-values are calculated using the fast method as described in the nCounter Advanced Analysis 2.0 User Manual. The p-value adjustment is performed using the Benjamini–Hochberg method of estimating false discovery rates (FDR). Clustering of genes for the final heatmap of differentially expressed genes was done using the PAM (Partitioning Around Medoids) method using the fpc R library. Hypergeometric distribution was used to analyze the enrichment of pathways, gene ontology, domain structure and other ontologies. The topGO R library was used to determine local similarities and dependencies between GO terms in order to perform Elim pruning correction. Several database sources were referenced for enrichment analysis, including Interpro [40], NCBI [41], MSigDB [42, 43], REACTOME [44], WikiPathways. Enrichment was calculated relative to a set of background genes relevant to the experiment.

CCOC(=O)[C@]1(c2ccccc2)N=C(c2ccc(OC)cc2)N(Cc2ccccc2)[C@@H]1c1ccc(NCc2ccccc2)cc1 [TCH-165]
ABL1 normalized gene expression: 8.417 and 8.4055 and 8.194
ACVR1B normalized gene expression: 5.827 and 5.592 and 5.805
ACVR2A normalized gene expression: 6.629 and 6.427 and 6.2646
AKT1 normalized gene expression: 9.563 and 9.727 and 9.565
AKT2 normalized gene expression: 9.573 and 9.603 and 9.59
AKT3 normalized gene expression: 5.86 and 5.739 and 5.506
ALK normalized gene expression: 5.044 and 4.427 and 3.805
AMH normalized gene expression: 4.488 and 4.27 and 3.291
ANGPT1 normalized gene expression: 7.445 and 7.284 and 7.245
APC normalized gene expression: 7.784 and 7.6193 and 7.522
AR normalized gene expression: 4.723 and 4.093 and 4.653
ARID1A normalized gene expression: 9.641 and 9.688 and 9.749
ARNT2 normalized gene expression: 5.61 and 5.297 and 5.0068
ATM normalized gene expression: 8.202 and 8.069 and 8.0531
ATR normalized gene expression: 9.3284 and 9.349 and 9.258
ATRX normalized gene expression: 10.3284 and 10.1666 and 10.2009
AXIN1 normalized gene expression: 8.978 and 8.914 and 8.769
AXIN2 normalized gene expression: 4.308 and 4.3768 and 4.39
B2M normalized gene expression: 16.2154 and 16.1625 and 16.1882
BAD normalized gene expression: 9.483 and 9.357 and 9.442
BAIAP3 normalized gene expression: 6.488 and 5.962 and 5.926
BAMBI normalized gene expression: 6.259 and 6.476 and 6.341
BAP1 normalized gene expression: 8.78 and 8.732 and 8.643
BAX normalized gene expression: 9.129 and 9.1412 and 9.225
BCL2A1 normalized gene expression: 5.758 and 5.547 and 5.712
BCL2L1 normalized gene expression: 10.1011 and 10.0891 and 10.0785
BCL2 normalized gene expression: 9.695 and 9.7506 and 9.653
BCOR normalized gene expression: 9.105 and 9.1915 and 9.017
BDNF normalized gene expression: 5.044 and 4.739 and 5.0068
BID normalized gene expression: 7.087 and 7.045 and 6.9095
BIRC3 normalized gene expression: 5.924 and 5.759 and 5.5707
BMP2 normalized gene expression: 5.259 and 4.7789 and 5.156
BMP4 normalized gene expression: 3.86 and 2.891 and 3.0682
BMP5 normalized gene expression: 5.758 and 5.124 and 4.653
BMP6 normalized gene expression: 7.818 and 7.896 and 7.955
BMP7 normalized gene expression: 8.639 and 8.544 and 8.563
BMPR1B normalized gene expression: 5.53 and 5.476 and 5.592
BNIP3 normalized gene expression: 9.175 and 9.079 and 9.173
BRAF normalized gene expression: 8.142 and 7.966 and 8.109
BRCA1 normalized gene expression: 10.3606 and 10.2785 and 10.3058
BRCA2 normalized gene expression: 8.271 and 8.2205 and 8.187
CACNA1C normalized gene expression: 4.649 and 4.029 and 4.291
CACNA1D normalized gene expression: 7.445 and 7.37 and 7.163
CACNA1E normalized gene expression: 5.723 and 5.124 and 4.876
CACNA1G normalized gene expression: 4.649 and 4.093 and 4.483
CACNA1H normalized gene expression: 5.259 and 4.3768 and 4.483
CACNA2D1 normalized gene expression: 4.986 and 5.0613 and 5.2646
CACNB2 normalized gene expression: 4.986 and 4.739 and 4.975
CACNB3 normalized gene expression: 5.308 and 5.154 and 5.592
CACNB4 normalized gene expression: 5.208 and 4.996 and 4.841
CACNG1 normalized gene expression: 4.793 and 4.093 and 4.1271
CACNG4 normalized gene expression: 6.629 and 6.927 and 6.75
CALML3 normalized gene expression: 4.986 and 4.476 and 4.528
CALML5 normalized gene expression: 4.924 and 3.739 and 3.291
CAMK2B normalized gene expression: 5.156 and 4.029 and 4.1271
CAPN2 normalized gene expression: 4.488 and 4.7789 and 4.653
CASP3 normalized gene expression: 9.077 and 9.095 and 9.024
CASP7 normalized gene expression: 7.9 and 7.832 and 7.858
CASP8 normalized gene expression: 10.5065 and 10.4134 and 10.4228
CASP9 normalized gene expression: 7.015 and 7.5638 and 7.592
CASP10 normalized gene expression: 6.044 and 5.524 and 5.316
CBL normalized gene expression: 6.94 and 6.657 and 6.805
CBLC normalized gene expression: 2.723 and 1.891 and 3.0682
CCNA1 normalized gene expression: 5.355 and 4.996 and 4.769
CCNA2 normalized gene expression: 11.2764 and 11.2603 and 11.2666
CCNB1 normalized gene expression: 12.2985 and 12.3229 and 12.3132
CCND1 normalized gene expression: 7.343 and 7.069 and 7.218
CCND2 normalized gene expression: 11.5762 and 11.5571 and 11.5967
CCND3 normalized gene expression: 7.732 and 7.547 and 7.5547
CCNE1 normalized gene expression: 7.001 and 7.297 and 7.31
CCNE2 normalized gene expression: 8.015 and 7.524 and 7.638
CCNO normalized gene expression: 5.156 and 4.093 and 4.0682
CCR7 normalized gene expression: 3.723 and 3.817 and 3.483
CD14 normalized gene expression: 5.53 and 5.402 and 5.437
CD19 normalized gene expression: 4.571 and 4.476 and 4.184
CD40 normalized gene expression: 6.86 and 6.729 and 6.901
CDC6 normalized gene expression: 11.1861 and 11.1846 and 11.1724
CDC7 normalized gene expression: 7.884 and 7.9093 and 7.845
CDC14A normalized gene expression: 6.308 and 6.012 and 6.038
CDC14B normalized gene expression: 5.86 and 5.891 and 6.0224
CDC25A normalized gene expression: 8.686 and 8.482 and 8.39
CDC25B normalized gene expression: 9.593 and 9.697 and 9.611
CDC25C normalized gene expression: 8.406 and 8.5 and 8.492
CDH1 normalized gene expression: 5.355 and 5.891 and 5.673
CDK2 normalized gene expression: 8.944 and 8.829 and 8.792
CDK4 normalized gene expression: 10.4105 and 10.495 and 10.3803
CDK6 normalized gene expression: 9.974 and 9.747 and 9.87
CDKN1A normalized gene expression: 7.714 and 7.882 and 7.792
CDKN1B normalized gene expression: 7.835 and 7.891 and 7.722
CDKN1C normalized gene expression: 7.81 and 7.789 and 7.581
